Article PMC9728921, “Characterization of a KDM5 small molecule inhibitor with antiviral activity against hepatitis B virus” (PLOS ONE, 2022)
“Also recorded” adds a separate entry of the source.

Key:
[1] = target: T1, NSD3 (Homo sapiens, UniProt Q9BZ95); assay: Histone methyltransferase enzymatic assay, NSD3; assay type: biochemical; conditions: enzyme conc. 100 nM
T1 construct: 1021-1322; purchased RBC (read as Reaction Biology Corporation, named)
Protocol: Histone methyltransferase assays were performed in 96-well half-area optiplates (PerkinElmer) at room temperature. All concentrations are final unless noted otherwise. Compounds were serially diluted in DMSO and the final DMSO concentration was 1%. A 24 μL reaction mixture contained compound, enzyme, 200 nM of nucleosome or histone substrate, 400 nM ^3H-SAM (83.1 Ci/mmol), 50 mM Tris-HCl (pH 8.0), 50 mM NaCl, 5 mM MgCl2, 1 mM DTT, and 0.01% Tween-20. The plate was sealed, mixed on a Titramax plate shaker at 1200 rpm for 30 sec, and incubated at room temperature for 60 min. The reaction was quenched by addition of 24 μL mixture containing 5 mg/mL PVT-PEI beads and 300 μM unlabeled SAM in water. The plate was sealed, mixed as previously noted, incubated overnight, and read on a TopCount plate reader (PerkinElmer).
(§1) Data was analyzed using GraphPad Prism 6.0 (La Jolla, CA). […] IC50 values were calculated as an average of at least two independent experiments.

[2] = target: KDM1A (Homo sapiens, UniProt O60341); assay: KDM1A enzymatic assay (AlphaLISA, NAD); assay type: biochemical
Protocol: The KDM1 assay was conducted in the presence of NAD but without Fe(II) or ascorbic acid. A 10 μL reaction mixture containing 50 mM Tris-HCl (pH 9.0), 50 mM NaCl, 0.01% Tween-20, 0.25 nM of enzyme, and 1 mM NAD was pre-incubated for 10 min. The reaction was started by addition of 5 μL of H3(1–21)K4 me1, and the reaction mixture was incubated for 60 min. The reaction was quenched with 10 μL AlphaLISA Acceptor beads (1:200) in Epigenetics Buffer and the reaction mixture was incubated for 60 min. The Donor beads were diluted 1:200 into Epigenetics Buffer in the dark, and 10 μL of this mixture was added to each well and incubated for another 60 min in the dark. The assay plates were read on an Enspire plate reader (PerkinElmer) using a standard AlphaLISA program.
as §1

[3] = Cell-associated GS-080 exposure and half-life in PHH (LC-MS); assay type: in vitro ADME, human
Protocol: PHH were infected with HBV for three days prior to initiation of GS-5801 treatment. PHH were dosed with vehicle or 1 µM GS-5801once for three days (three day exposure; continuous dosing) or once for two hours (two hour exposure; pulse dosing). […] (C) Pharmacokinetic parameters calculated included the half-life (t1/2), maximum concentration (Cmax), and area under the curve (AUClast).

[4] = target: KDM4C (Homo sapiens, UniProt Q9H3R0); assay: biochemical
Chain of KDM4C (Q9H3R0 whole entry): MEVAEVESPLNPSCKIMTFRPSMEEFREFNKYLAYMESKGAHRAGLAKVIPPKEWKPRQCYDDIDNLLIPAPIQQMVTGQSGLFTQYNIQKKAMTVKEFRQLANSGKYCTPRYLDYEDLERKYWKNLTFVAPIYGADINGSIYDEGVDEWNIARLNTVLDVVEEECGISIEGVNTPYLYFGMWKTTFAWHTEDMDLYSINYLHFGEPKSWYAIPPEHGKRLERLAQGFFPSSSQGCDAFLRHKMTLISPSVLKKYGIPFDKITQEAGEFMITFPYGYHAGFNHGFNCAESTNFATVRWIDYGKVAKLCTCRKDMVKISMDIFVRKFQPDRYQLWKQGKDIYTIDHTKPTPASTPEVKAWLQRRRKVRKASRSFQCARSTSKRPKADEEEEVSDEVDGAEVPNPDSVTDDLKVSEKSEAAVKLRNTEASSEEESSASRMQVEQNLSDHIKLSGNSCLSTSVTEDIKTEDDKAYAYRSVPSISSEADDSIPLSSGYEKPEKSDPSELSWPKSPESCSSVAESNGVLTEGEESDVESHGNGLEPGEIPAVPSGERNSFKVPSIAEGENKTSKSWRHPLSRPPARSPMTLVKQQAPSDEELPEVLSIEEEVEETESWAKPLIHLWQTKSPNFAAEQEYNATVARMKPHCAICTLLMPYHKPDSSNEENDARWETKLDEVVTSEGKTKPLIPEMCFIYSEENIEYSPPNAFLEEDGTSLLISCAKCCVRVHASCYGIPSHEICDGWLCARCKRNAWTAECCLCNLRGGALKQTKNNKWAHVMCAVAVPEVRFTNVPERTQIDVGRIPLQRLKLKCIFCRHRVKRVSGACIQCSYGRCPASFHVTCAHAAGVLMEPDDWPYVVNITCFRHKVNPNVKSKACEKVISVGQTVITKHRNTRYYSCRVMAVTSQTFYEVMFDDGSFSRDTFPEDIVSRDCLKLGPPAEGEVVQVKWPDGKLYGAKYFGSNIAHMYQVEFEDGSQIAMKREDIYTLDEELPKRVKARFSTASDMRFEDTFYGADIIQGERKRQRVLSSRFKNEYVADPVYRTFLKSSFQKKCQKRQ
Protocol: The following assay protocol was used for all histone demethylases tested except KDM1A, KDM5A, B, and D, which are described below. Compounds were serially diluted into a 384-well Alpha plate as a DMSO solution and mixed with 5 μL reaction buffer (buffer A) containing 50 mM HEPES (pH 7.0), 0.1% BSA, and 0.003% Tween-20. The enzyme of interest was pre-incubated with 15 μM of Fe^2+ for 10 min (except 30 min for KDM2B) in reaction buffer A. 5 μL of the enzyme mixture was added to each of the compound-containing wells and incubated for 10 min. The reaction was started by addition of a 5 μL mixture containing 300 nM peptide substrate, 75 μM L-ascorbic acid, and 30 μM α-ketoglutarate in buffer A. This final 15 μL of reaction mixture was incubated for 20 min for KDM5B and 1 hour for the other KDM enzymes. The reaction was quenched with 10 μL of diluted AlphaLISA Acceptor beads (1:400) in Epigenetics Buffer and incubated for 60 min. The Donor beads were diluted 1:400 into Epigenetics Buffer in the dark and 10 μL of this was added to each well and incubated for another 60 min in the dark. The assay plates were read on an Enspire plate reader (PerkinElmer) using a standard AlphaLISA program.
as §1

[5] = system: HBV cccDNA; assay: cccDNA levels by Southern blot in HBV-infected PHH; assay type: cell-based, Hepatitis B virus; conditions: 1 or 10 µM every three to four days for 14 days
Protocol: PHH were plated in 24-well plates at 350,000–400,000 live cells per well and infected with HBV genotype D as described above. […] DNA was isolated from PHH using a MasterPure Complete DNA Purification kit (Epicentre, Madison, WI; MC85200) according to the manufacturer’s instructions, but omitting ProteinaseK or RNaseA treatment. After isolation, DNA was treated with T5 exonuclease (New England Biolabs, Ipswich, MA; M0363S) according to the manufacturer’s instructions.
cccDNA and host mitochondrial DNA (ND4) levels were examined by Southern blot using branched DNA signal amplification (bDNA) method as previously described. All probes and reagents were purchased from Thermo Fisher Scientific.
PHH were infected with HBV for three days prior to initiation of GS-5801 treatment. […] Total DNA was isolated, treated with T5 exonuclease to reduce levels of relaxed circular HBV DNA (rcDNA), and probed for cccDNA and mitochondrial DNA (Mt ND4: NADH-ubiquinone oxidoreductase chain 4) by Southern blot.

T1 sequence (Q9BZ95 1021-1322): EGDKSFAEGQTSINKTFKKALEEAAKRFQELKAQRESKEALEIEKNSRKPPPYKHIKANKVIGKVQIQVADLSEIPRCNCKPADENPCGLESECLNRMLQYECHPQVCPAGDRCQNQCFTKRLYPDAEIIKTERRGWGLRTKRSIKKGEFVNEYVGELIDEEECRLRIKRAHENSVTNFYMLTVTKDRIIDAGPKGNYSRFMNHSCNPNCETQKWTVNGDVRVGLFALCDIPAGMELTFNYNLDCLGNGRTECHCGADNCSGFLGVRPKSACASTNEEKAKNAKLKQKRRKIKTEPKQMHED

| IC50 [1] | Fold Selectivity Compared to KDM5A ([2]; IC50 of KDM1A over KDM5A) | IC50 ([2]; enzyme concentration 0.25 nM) | cell-associated GS-080 Cmax and AUClast, pulse compared to continuous dosing ([3]; PHH dosed with 1 µM GS-5801, two-hour pulse vs three day exposure) | half-life at 1 µM ([3]; human, primary human hepatocytes (PHH), cell-associated, PHH, 1 uM, uninfected PHH) | IC50 [4] | Fold Selectivity Compared to KDM5A ([4]; IC50 of KDM4C over KDM5A) | Compound | levels of cccDNA [5] |
| --- | --- | --- | --- | --- | --- | --- | --- | --- |
| > 100 µM | > 278,000 fold | > 100 µM | two-fold lower Cmax and AUClast values | 42 to 66 h | 0.0048 µM | 13 fold | CCN(CCN(C)C)C(=O)CNCc1cc(C(=O)O)ccn1 [GS-080] |  |
|  |  |  |  |  |  |  | CCOC(=O)c1ccnc(CNCC(=O)N(CC)CCN(C)C)c1 [GS-5801] | did not alter levels of cccDNA; also recorded: does not reduce levels of cccDNA; also recorded: no sign of reduced cccDNA |
